Reference: ChEMBL document CHEMBL1133702

Target: Estrogen receptor (Ovis aries) (UniProt P49885+Q9TU15)

Row | RAC app | SMILES
1 | 4.22 | CN(CCOc1ccc([C@H]2C[C@]3(C)[C@@H](O)CC[C@H]3[C@@H]3CCc4cc(O)ccc4[C@H]32)cc1)C(=O)CBr
2 | 17.1 | C[C@]12C[C@H](c3ccc(OCCCCCNC(=O)CBr)cc3)[C@@H]3c4ccc(O)cc4CC[C@H]3[C@@H]1CC[C@@H]2O
3 | 39.9 | C[C@]12C[C@H](c3ccc(OCCOS(C)(=O)=O)cc3)[C@@H]3c4ccc(O)cc4CC[C@H]3[C@@H]1CC[C@@H]2O
4 | 3.3 | C[C@]12C[C@H](c3ccc(OCCNC(=O)CCl)cc3)[C@@H]3c4ccc(O)cc4CC[C@H]3[C@@H]1CC[C@@H]2O
5 | 6.96 | CN(CCOc1ccc([C@H]2C[C@]3(C)[C@@H](O)CC[C@H]3[C@@H]3CCc4cc(O)ccc4[C@H]32)cc1)C(=O)CCl
6 | 8.23 | C[C@]12C[C@H](c3ccc(OCCCCCI)cc3)[C@@H]3c4ccc(O)cc4CC[C@H]3[C@@H]1CC[C@@H]2O
7 | 19.4 | CN(CC#Cc1ccc([C@H]2C[C@]3(C)[C@@H](O)CC[C@H]3[C@@H]3CCc4cc(O)ccc4[C@H]32)cc1)C(=O)CCl
8 | 9.7 | CN(CCCCCOc1ccc([C@H]2C[C@]3(C)[C@@H](O)CC[C@H]3[C@@H]3CCc4cc(O)ccc4[C@H]32)cc1)C(=O)CBr
9 | 10.6 | C[C@]12C[C@H](c3ccc(OCCI)cc3)[C@@H]3c4ccc(O)cc4CC[C@H]3[C@@H]1CC[C@@H]2O
10 | 14.5 | C[C@]12C[C@H](c3ccc(C#CCNC(=O)CCl)cc3)[C@@H]3c4ccc(O)cc4CC[C@H]3[C@@H]1CC[C@@H]2O
